Literature values, collected in patent US20110287061A1 (priority 2010, published 2011).

Assays:
hair loss = conditions: administered together with Saw Palmetto; individuals with mild to moderate hair loss
gray hair [1] = conditions: 50 patients with gray hair, daily administration for two months
gray hair [2] = conditions: of 20 patients taking varying amounts daily for other conditions

SMILES: CC[C@H](CC[C@@H](C)[C@H]1CC[C@H]2[C@@H]3CC=C4C[C@@H](O)CC[C@]4(C)[C@H]3CC[C@]12C)C(C)C [beta-sitosterol]
- hair growth (hair loss): healthy hair growth

SMILES: Nc1ccc(C(=O)O)cc1 [PABA, 4-aminobenzoic acid]
- hair colour change (gray hair [1]): marked darkening of the hair
- cases of dramatic hair color change and hair re-growth (gray hair [2]): 5 cases
